According to EP0511791A2, “Pyrrolopyridine derivatives as Angiotensin inhibitors” (ZENECA LIMITED, priority 1991, dated 1992):

Tested on: angiotensin II-induced pressor responses
Assay: Test C: antagonism of angiotensin II-induced pressor responses in rats
Assay type: in vivo
Settings: Rattus norvegicus, iv, i.v. administration
Experimental: Test C: This in vivo test involves using terminally-anaesthetised or conscious rats in which an arterial catheter has been implanted under anaesthesia for the measurement of changes in blood pressure. The All antagonistic effects of the test compound following oral or parenteral administration, are assessed against angiotensin II-induced pressor responses. To ensure that the effect is specific, the effect of the test compound on vasopressin-induced pressor responses may also be determined in the same preparation.

Cc1cc2c(cc(C)n2Cc2ccc(-c3ccccc3-c3nnn[nH]3)cc2)c(Cl)n1.Cl [Example 2, 4-chloro-2,6-dimethyl-1-[(2'-(1H-tetrazol-5-yl)biphenyl-4-yl)methyl]-1H-pyrrolo[3,2-c]pyridine hydrochloride]
ED50: 0.4 mg/kg
